Drawing on the ASAP Discovery antiviral challenge data (2025), this text covers microsomal CLint and Papp for 30 compounds.

Values joined by “and” are separate entries in the source; they are usually repeats but may differ in a detail not shown here. Equal values may be shown once.

For one series the following is noted: human; liver_microsomes.
The compound `CC(C)[C@H](Nc1ncnc2[nH]c(-c3cnn(C)c3C#N)cc12)c1ccc2c(c1)OCCO2` (racemic) returned a microsomal CLint of 74 µL/min/mg.
The compound `O=C(Nc1cc2c(cc1Br)CNC2)c1cc(F)cc2[nH]ncc12` had a microsomal CLint of 11.4 µL/min/mg.
`CC(C)[C@H](CO)Nc1ncnc2[nH]ccc12` had a microsomal CLint of 6 µL/min/mg.
Consider `O=C(Nc1cccc2c(C(=O)N[C@H]3c4ccccc4C[C@H]3C(=O)O)c[nH]c12)NC1CC1` (racemic), for which the microsomal CLint is 6 µL/min/mg.
`CC(C)[C@H](Nc1ncnc(N)c1Cl)c1ccc2c(c1)S(=O)(=O)CCC2` (racemic) showed a microsomal CLint of 79 µL/min/mg.
As to `CC(C)[C@H](Nc1ncnc2[nH]c(-c3cnn(C)c3C#N)cc12)c1ccc2c(c1)NC(=O)CO2` (single isomer, unassigned), the microsomal CLint was 115 µL/min/mg and 52 µL/min/mg.
Still for that read-out and setting: with `COc1ccc([C@H](NC(=O)c2ncnc3[nH]ccc23)C(C)c2nnn[nH]2)cc1` (mixture of isomers) the figure was 2 µL/min/mg; with `CCCC[C@H](NC(=O)OC(C)(C)C)C(=O)N[C@H](C(=O)NCc1ccc(CN)cc1)c1ccc(OCc2ccccc2)cc1` (mixture of isomers), 56 µL/min/mg.
Consider `Cc1cc(-c2noc(C(F)(F)F)n2)ccc1OCCCc1cc(C(=O)N(C)C)no1`, for which the microsomal CLint turned out to be 11 µL/min/mg.
With `O=C(Nc1ccc2c(c1)CNC2)c1cc(Br)cc2[nH]c(-c3ccccc3)nc12`, the microsomal CLint is 12.8 µL/min/mg.
`CNC(=O)c1cc(Cl)c(F)cc1NS(=O)(=O)c1ccc(Oc2ccccc2Cl)cc1` showed a microsomal CLint of 71.3 µL/min/mg.
Still for that read-out and setting: next, `COc1ccc([C@H](CC(=O)O)NC(=O)c2ncnc3[nH]ccc23)cc1` (racemic): 7 µL/min/mg.

For a further series the following is noted: mdck_mdr1.
`Cn1ncc(-c2cc3c(N[C@H](c4ccc5c(n4)OCCO5)C(C)(C)C)ncnc3[nH]2)c1C#N` (racemic) had a Papp of 13.5 ×10⁻⁶ cm/s.
The compound `CC(C)[C@H](Nc1ncnc2[nH]c(-c3cnn(C)c3C#N)cc12)c1ccc2c(c1)NC(=O)CO2` (racemic) returned an apparent permeability coefficient (Papp) of 3.07 ×10⁻⁶ cm/s.
On to `O=C(Nc1ccc2c(c1)CNC2)c1cc(Cl)cc2[nH]ncc12`, for which the Papp worked out at 1.8 ×10⁻⁶ cm/s.
For the compound `CC(C)[C@H](Nc1ncnc2[nH]c(-c3cnn(CC(=O)N(C)C)c3)cc12)c1ccc2c(c1)S(=O)(=O)CCC2` (racemic), the apparent permeability coefficient (Papp) came out at 0.67 ×10⁻⁶ cm/s.
`CNC(=O)c1cc2c(N[C@H](c3ccc4c(c3)OCCO4)C(C)C)ncnc2[nH]1` (racemic): the Papp turned out to be 1.96 ×10⁻⁶ cm/s.
Same read-out and setting: next, `CCNC(=O)c1cc2c(N[C@H](c3ccc4c(c3)S(=O)(=O)CCO4)C(C)C)ncnc2[nH]1` (racemic): 0.471 ×10⁻⁶ cm/s; `CCNC(=O)c1cc2c(N[C@H](c3ccc4c(c3)S(=O)(=O)CCC4)C(C)C)ncnc2[nH]1` (racemic): 0.7 ×10⁻⁶ cm/s.
`CC(C)[C@H](Nc1ncnc2[nH]c(-c3cnn(C)c3C#N)cc12)c1ccc2c(c1)OCCO2` (racemic) showed a Papp of 4.2 ×10⁻⁶ cm/s.
As for `O=C(Nc1ccc2c(c1)CNC2)c1cc(Cl)cc2c1cnn2C1CCC1`, the Papp is 1 ×10⁻⁶ cm/s.
Same read-out and setting: next, `O=C(Nc1cc2c(cc1Br)CNC2)c1cc(F)cc2[nH]ncc12`: 7.65 ×10⁻⁶ cm/s; `CC(C)[C@H](CO)Nc1ncnc2[nH]ccc12`: 13.1 ×10⁻⁶ cm/s; `Cn1cc2c(C(=O)Nc3ccc4c(c3)CNC4)cc(F)cc2n1`: 3.4 ×10⁻⁶ cm/s.
For `O=C(Nc1cc2c(cc1C1CC1)CNC2)c1cc(F)cc2[nH]ncc12`, the Papp is 3.41 ×10⁻⁶ cm/s.
Regarding `CCNC(=O)c1cc2c(N[C@H](c3ccc4c(c3)S(=O)(=O)CCC4)C(C)C)ncnc2[nH]1` (single isomer, unassigned), the Papp was 0.717 ×10⁻⁶ cm/s and 0.532 ×10⁻⁶ cm/s.
The same measure, in the same setting: with `O=C(Nc1cccc2c(C(=O)N[C@H]3c4ccccc4C[C@H]3C(=O)O)c[nH]c12)NC1CC1` (racemic) the figure was 1.8 ×10⁻⁶ cm/s.
On to `O=C(Nc1cc2c(c(C3=CCOCC3)c1)CNC2)c1cc(F)cc2[nH]ncc12`, for which the Papp worked out at 1.1 ×10⁻⁶ cm/s.
Same read-out and setting: with `O=C(Nc1ccc2c(c1)CNC2)c1cc(Cl)cc2cn[nH]c12` the figure was 4.63 ×10⁻⁶ cm/s; with `O=C(Nc1ccc2c(c1)CNC2)c1cc(F)cc2c1CCC2`, 10.7 ×10⁻⁶ cm/s; with `O=C(Nc1ccc2c(c1)CNC2)c1cc(Cl)cc2ccncc12`, 3.42 ×10⁻⁶ cm/s.
On the same count and under the same terms, with `CC(C)[C@H](Nc1ncnc(N)c1Cl)c1ccc2c(c1)S(=O)(=O)CCC2` (racemic) the figure was 10.1 ×10⁻⁶ cm/s; with `CC(C)[C@H](Nc1ncnc2[nH]c(-c3cnn(C)c3C#N)cc12)c1ccc2c(c1)NC(=O)CO2` (single isomer, unassigned), 1.22 ×10⁻⁶ cm/s and 2.35 ×10⁻⁶ cm/s; with `Cn1c(=O)[nH]c2c(C(=O)Nc3ccc4c(c3)CNC4)cc(Br)cc21`, 0.805 ×10⁻⁶ cm/s.
Same read-out and setting: next, `COc1cc(-c2cc(NC(=O)c3cc(F)cc4[nH]ncc34)cc3c2CNC3)ccn1`: 0.788 ×10⁻⁶ cm/s.
As to `COc1ccc([C@H](NC(=O)c2ncnc3[nH]ccc23)C(C)c2nnn[nH]2)cc1` (mixture of isomers), the Papp is 1.13 ×10⁻⁶ cm/s.
For `CNC(=O)c1cc2c(N[C@H](c3ccc4c(c3)S(=O)(=O)CCC4)C(C)C)ncnc2[nH]1` (single isomer, unassigned), the Papp was 0.891 ×10⁻⁶ cm/s and 0.377 ×10⁻⁶ cm/s.
The compound `CCCC[C@H](NC(=O)OC(C)(C)C)C(=O)N[C@H](C(=O)NCc1ccc(CN)cc1)c1ccc(OCc2ccccc2)cc1` (mixture of isomers) registered a Papp of 0.833 ×10⁻⁶ cm/s.
Same read-out and setting: next, `Cc1cc(-c2noc(C(F)(F)F)n2)ccc1OCCCc1cc(C(=O)N(C)C)no1`: 2.26 ×10⁻⁶ cm/s; `O=C(Nc1ccc2c(c1)CNC2)c1cc(Br)cc2[nH]c(-c3ccccc3)nc12`: 0.0942 ×10⁻⁶ cm/s.
